According to patent publication EP0908457B1, “3-(1,2-benzisothiazol- and isoxazol-5-Y1)-2,4(1H,3H)-pyrimidinedione or thione and 3-(1,2-benzisothiazol- and isoxazol-5-y1)-4(3H)-pyrimidinone or thione herbicidal agents” (BASF AKTIENGESELLSCHAFT, priority 1997, dated 1999):

Assays:
[1] = test system: Echinochloa oryzoides (Ard.) Fritsch.; test: Preemergence weed control under flooded paddy conditions, ECHORC (Watergrass (Calif.)); format: in vivo; conditions: preemergence, flooded paddy, rated three to four weeks after treatment; on herbicidal effect rating, ECHORC: meaning of each grade not given here
Cyperus iria = test: Preemergence weed control under flooded paddy conditions, CYPIR (Rice Flatsedge); format: in vivo; conditions: preemergence, flooded paddy, rated three to four weeks after treatment; on herbicidal effect rating, CYPIR: meaning of each grade not given here
[2] = test system: Cyperus serotinus, Rottb.; test: Preemergence weed control under flooded paddy conditions, CYPSE (Flatsedge); format: in vivo; conditions: preemergence, rated three to four weeks after treatment; on herbicidal effect rating, CYPSE: meaning of each grade not given here
[3] = test system: Monochoria vaginalis, Presl.; test: Preemergence weed control under flooded paddy conditions, MOOVA (Monochoria); format: in vivo; conditions: preemergence, flooded paddy, rated three to four weeks after treatment; on herbicidal effect rating, MOOVA: meaning of each grade not given here
Sagittaria pygmaea, L. = test: Preemergence weed control under flooded paddy conditions, SAGPY (Arrowhead (Pygmaea)); format: in vivo; conditions: preemergence, flooded paddy, rated three to four weeks after treatment; on herbicidal effect rating, SAGPY: meaning of each grade not given here
[4] = test system: Oryza sativa, (L.) Tebonnet; test: Rice tolerance to post-transplant applications under flooded paddy conditions (Example 187), ORYSAT (Rice, Tebonnet); conditions: rated three to four weeks after treatment

COC(=O)COc1noc2ccc(-n3c(=O)cc(C(F)(F)F)n(C)c3=O)cc12 [Example 22, Methyl {{5-[3,6-dihydro-3-methyl-2,6-dioxo-4-(trifluoromethyl)-1(2H)-pyrimidinyl]-1,2-benzisoxazol-3-yl}oxy}acetate]
2.5: herbicidal effect rating, ORYSAT (rice tolerance) ([4]; 0.1250 kg/ha) | herbicidal effect rating, ORYSAT (rice tolerance) ([4]; 0.2500 kg/ha)
2.0: herbicidal effect rating, CYPSE ([2]; 0.0313 kg/ha) | herbicidal effect rating, SAGPY (Sagittaria pygmaea, L.; 0.0625 kg/ha) | herbicidal effect rating, ORYSAT (rice tolerance) ([4]; 0.0313 kg/ha) | herbicidal effect rating, ORYSAT (rice tolerance) ([4]; 0.0625 kg/ha)
7.0: herbicidal effect rating, CYPSE ([2]; 0.0625 kg/ha) | herbicidal effect rating, CYPSE ([2]; 0.1250 kg/ha)
0.0: herbicidal effect rating, SAGPY (Sagittaria pygmaea, L.; 0.0313 kg/ha)
4.0: herbicidal effect rating, SAGPY (Sagittaria pygmaea, L.; 0.1250 kg/ha)
9.0: herbicidal effect rating, ECHORC ([1]; 0.0313 kg/ha) | herbicidal effect rating, ECHORC ([1]; 0.0625 kg/ha) | herbicidal effect rating, ECHORC ([1]; 0.1250 kg/ha) | herbicidal effect rating, ECHORC ([1]; 0.2500 kg/ha) | herbicidal effect rating, CYPIR (Cyperus iria; 0.0313 kg/ha) | herbicidal effect rating, CYPIR (Cyperus iria; 0.0625 kg/ha) | herbicidal effect rating, CYPIR (Cyperus iria; 0.1250 kg/ha) | herbicidal effect rating, CYPIR (Cyperus iria; 0.2500 kg/ha) | herbicidal effect rating, CYPSE ([2]; 0.2500 kg/ha) | herbicidal effect rating, MOOVA ([3]; 0.0313 kg/ha) | herbicidal effect rating, MOOVA ([3]; 0.0625 kg/ha) | herbicidal effect rating, MOOVA ([3]; 0.1250 kg/ha) | herbicidal effect rating, MOOVA ([3]; 0.2500 kg/ha) | herbicidal effect rating, SAGPY (Sagittaria pygmaea, L.; 0.2500 kg/ha)

Cn1c(C(F)(F)F)cc(=O)n(-c2ccc3snc(C(Br)C#N)c3c2)c1=O (stereo not drawn) [Example 264, 1,2-Benzisothiazole-3-acetonitrile, alpha-bromo-5-[3,6-dihydro-3-methyl-2,6-dioxo-4-(trifluoromethyl)-1(2H)-pyrimidinyl]-]
5.0: CYPIR herbicidal effect rating (Cyperus iria; Rate 0.0320 kg/ha) | CYPIR herbicidal effect rating (Cyperus iria; Rate 0.0620 kg/ha) | CYPIR herbicidal effect rating (Cyperus iria; Rate 0.1250 kg/ha) | CYPIR herbicidal effect rating (Cyperus iria; Rate 0.2500 kg/ha) | ORYSAT herbicidal effect rating ([4]; Rate 0.2500 kg/ha)
0.0: ECHORC herbicidal effect rating ([1]; Rate 0.0320 kg/ha) | ECHORC herbicidal effect rating ([1]; Rate 0.0620 kg/ha) | ECHORC herbicidal effect rating ([1]; Rate 0.1250 kg/ha) | SAGPY herbicidal effect rating (Sagittaria pygmaea, L.; Rate 0.0320 kg/ha) | SAGPY herbicidal effect rating (Sagittaria pygmaea, L.; Rate 0.0620 kg/ha) | SAGPY herbicidal effect rating (Sagittaria pygmaea, L.; Rate 0.1250 kg/ha) | SAGPY herbicidal effect rating (Sagittaria pygmaea, L.; Rate 0.2500 kg/ha) | ORYSAT herbicidal effect rating ([4]; Rate 0.0320 kg/ha) | ORYSAT herbicidal effect rating ([4]; Rate 0.0620 kg/ha) | ORYSAT herbicidal effect rating ([4]; Rate 0.1250 kg/ha)
9.0: CYPSE herbicidal effect rating ([2]; Rate 0.1250 kg/ha) | CYPSE herbicidal effect rating ([2]; Rate 0.2500 kg/ha) | MOOVA herbicidal effect rating ([3]; Rate 0.0320 kg/ha) | MOOVA herbicidal effect rating ([3]; Rate 0.0620 kg/ha) | MOOVA herbicidal effect rating ([3]; Rate 0.1250 kg/ha) | MOOVA herbicidal effect rating ([3]; Rate 0.2500 kg/ha)
4.0: CYPSE herbicidal effect rating ([2]; Rate 0.0320 kg/ha) | CYPSE herbicidal effect rating ([2]; Rate 0.0620 kg/ha)
2.0: ECHORC herbicidal effect rating ([1]; Rate 0.2500 kg/ha)

COCOCc1nsc2ccc(-n3c(=O)cc(C(F)(F)F)n(C)c3=O)cc12 [Example 478, 2,4(1H,3H)-Pyrimidinedione, 3-{3-[(methoxymethoxy)methyl]-1,2-benzisothiazol-5-yl}-1-methyl-6-(trifluoromethyl)-]
6.0: ECHORC herbicidal rating ([1]; 0.0620 kg/ha) | CYPSE herbicidal rating ([2]; 0.0320 kg/ha) | SAGPY herbicidal rating (Sagittaria pygmaea, L.; 0.0320 kg/ha) | SAGPY herbicidal rating (Sagittaria pygmaea, L.; 0.0620 kg/ha)
7.0: ECHORC herbicidal rating ([1]; 0.1250 kg/ha) | CYPSE herbicidal rating ([2]; 0.0620 kg/ha) | MOOVA herbicidal rating ([3]; 0.0320 kg/ha) | ORYSAT herbicidal rating (rice tolerance) ([4]; 0.0320 kg/ha)
4.0: ECHORC herbicidal rating ([1]; 0.0320 kg/ha) | CYPIR herbicidal rating (Cyperus iria; 0.0320 kg/ha)
9.0: ECHORC herbicidal rating ([1]; 0.2500 kg/ha) | CYPIR herbicidal rating (Cyperus iria; 0.0620 kg/ha) | CYPIR herbicidal rating (Cyperus iria; 0.1250 kg/ha) | CYPIR herbicidal rating (Cyperus iria; 0.2500 kg/ha) | CYPSE herbicidal rating ([2]; 0.1250 kg/ha) | CYPSE herbicidal rating ([2]; 0.2500 kg/ha) | MOOVA herbicidal rating ([3]; 0.0620 kg/ha) | MOOVA herbicidal rating ([3]; 0.1250 kg/ha) | MOOVA herbicidal rating ([3]; 0.2500 kg/ha) | SAGPY herbicidal rating (Sagittaria pygmaea, L.; 0.1250 kg/ha) | SAGPY herbicidal rating (Sagittaria pygmaea, L.; 0.2500 kg/ha) | ORYSAT herbicidal rating (rice tolerance) ([4]; 0.0620 kg/ha) | ORYSAT herbicidal rating (rice tolerance) ([4]; 0.1250 kg/ha) | ORYSAT herbicidal rating (rice tolerance) ([4]; 0.2500 kg/ha)
